Data from publication PMC6287197, “Eukaryotic Cell Toxicity and HSA Binding of [Ru(Me4phen)(bb7)]^2+ and the Effect of Encapsulation in Cucurbit[10]uril” (Frontiers in Chemistry, 2018).
Like-named read-outs stand apart in the source and are kept apart here.

Legend:
[1] = test system: BHK (baby hamster kidney) cell line; experiment: MTT toxicity assay against BHK cells; assay type: cell-based
Experimental: (§1) BHK (baby hamster kidney); Caco-2 (heterogeneous human epithelial colorectal adenocarcinoma); and Hep-G2 (liver carcinoma). All cell lines were cultured in 75 mL culture flasks in DMEM culture media (Dulbecco's Modified Eagle's Medium, Gibco, Thermo Fisher, UK) supplemented with 10% fetal bovine serum (Gibco, Thermo Fisher, UK), 1% MEM Non-Essential Amino Acid (Sigma, UK) and 1% penicillin-streptomycin (Sigma) at 37°C in an atmosphere of 5% humidified CO2. Cells used in the study were in the logarithmic growth phase, and unless stated were grown to 70% confluence, and then trypsinized with 0.5% trypsin-EDTA (Gibco, Canada) for detachment and use in the assays. […] The cells were cultured in 96-well microtiter plates containing the respective media to a cell density of 3,000 per well at 37°C in an atmosphere of air containing 5% CO2. Cell viability was assessed after continuous exposure to various concentrations of drugs (ranging from 0.5 to 400 μM) for 24 and 48 h. Cisplatin served as a treatment evaluation standard. […] The amount of MTT reduced to formazan within the cells was quantified by measuring the absorbance at λ = 570 nm using a Fluostar Galaxy Microplate Reader. The average values presented are based on at least three independent experiments. The IC50 values were determined using GraphPad Prism 7.0 (GraphPad Software, San Diego, USA).

[2] = test system: Hep-G2 (human hepatocellular carcinoma) cell line; experiment: MTT toxicity assay against Hep-G2 cells; assay type: cell-based
Experimental: as §1

[3] = target: T1, human serum albumin (HSA) (Homo sapiens, UniProt P02768); experiment: HSA binding by tryptophan fluorescence quenching; conditions: for Kapp (apparent HSA binding constant) / binding number n for HSA binding: [Ru complex]/[HSA] ratio 0 to 2.4, 0.1 M sodium phosphate pH 7.4
T1 construct: purchased Sigma-Aldrich
Experimental: All solutions used in the protein binding studies were dissolved in a 0.1 M sodium phosphate buffer (pH = 7.4). Protein solutions (5 μM) were titrated with the ruthenium complexes from 2 mM stock solutions, from a metal complex/protein ratio of 0.0 to 8.0. […] All experiments were carried out in triplicate, with results presented as mean and standard deviation.
The static quenching via binding of the ruthenium complexes to HSA can be represented as: nRu+HSA→nRu⋯ HSA where nRu…HSA denotes the quenched ruthenium complex/HSA species. A double-logarithm equation of log10[(F0-F)/F] vs. log10[Ru] can then be used to express the equilibrium between the free and bound ruthenium(II) complex to determine the apparent binding constant (Kapp) and the binding number (n) (Krause-Heuer et al., [2012]). log [F0-F/F]=log10Kapp+nlog10[Ru]
It was not possible to determine a single apparent HSA binding constant, as a linear relationship was not observed over the entire concentration range of added ruthenium complex in the plot of log10[(F0 – F)/F] vs. log10[Ru]. However, two distinct linear sections could be found in the analysis of the double logarithm, corresponding to ruthenium complex to HSA ratios of (a) 0 to 2.4 and (b) 2.4 to 8. As previously observed (Li et al., [2013b]), the two binding ratio regions represent an initial 1:1 binding at low ruthenium complex concentration (ratios 0–2.4), and then upon addition of further ruthenium complex, a region (2.4–8) where multiple ruthenium complexes (≥ 2:1) are bound to HSA. The higher affinity 1:1 HSA binding constant Kapp and the binding numbers n for the ruthenium complexes determined at low ratios of added ruthenium complex are summarized in Table 2.

[4] = test system: Caco-2 (human epithelial colorectal adenocarcinoma) cell line; experiment: MTT toxicity assay against Caco-2 cells; assay type: cell-based
Experimental: as §1, with “h.” for “h. Cisplatin served as a treatment evaluation standard.”

[5] = parameters: method as in Li et al., 2017; conditions: mice, ref Li et al., 2017; cited from earlier work
[6] = target: T1, human serum albumin (HSA); parameters: method as in Li et al., 2013b; conditions: ref Li et al., 2013b; cited from earlier work
BHK cells = experiment: Confocal microscopy of cellular accumulation in BHK cells; assay type: cell-based, hamster
Experimental: The trypsinized BHK cells were seeded on sterile, poly L-lysine coated, coverslips in a 24-well plate. The ruthenium complex was applied to the cells in growth media to make the desired concentration (25 μM) and incubated at 37°C with 5% CO2 for 1 h. Following the incubation, 100 nM Mitotracker® Green FM (Invitrogen) was added for mitochondrial staining. Staining was carried out in DMEM medium under standard cultivation conditions as per the manufacturer's instructions. Following staining, the coverslips were gently rinsed with phosphate buffer solution (PBS, pH = 7.1) prior to confocal laser scanning microscopy.
The cellular accumulation of the ruthenium complex was determined using a laser scanning confocal microscope (FV3000, Olympus). Samples were viewed under 60× silicone immersion using the following excitation (λex) and emission (λem) wavelengths. Ruthenium complex (λex = 450 nm, λem = 630 nm) and Mitotracker Green FM (λex = 490 nm, λem = 516 nm) were excited using a blue argon laser (λex = 488 nm), and emissions were collected at λ = 600–650 nm for the ruthenium complex and λ = 500–550 nm for Mitotracker Green. […] The luminescence intensity of cis-α-[Ru(Me4phen)(bb7)]^2+ inside the BHK cells was quantified using the surface rendering function of Imaris 9.2.1 software, and the data analyzed for statistical difference using the Wilcoxon-test and t-test methods.

[7] = test system: eukaryotic cells (BHK, Hep-G2, Caco-2); experiment: Toxicity to the panel of eukaryotic cell lines (comparisons); assay type: cell-based
Experimental: as §1

[8] = test system: Gram-positive and Gram-negative bacteria; conditions: 2018, cited from earlier work; for MIC: Gram-positive and Gram-negative bacteria, ref Gorle et al., 2015, Sun et al.
[9] = parameters: method as in Sun et al., 2018; conditions: ref Sun et al., 2018; cited from earlier work
[10] = 24-h incubation, read-out: IC50 BHK 24 h
[11] = 48-h incubation, read-out: IC50 BHK 48 h
[12] = 24-h incubation, read-out: IC50 Hep-G2 24 h
[13] = 48-h incubation, read-out: IC50 Hep-G2 48 h
[14] = 24-h incubation, read-out: IC50 Caco-2 24 h
[15] = 48-h incubation, read-out: IC50 Caco-2 48 h

T1 sequence (P02768 25-609): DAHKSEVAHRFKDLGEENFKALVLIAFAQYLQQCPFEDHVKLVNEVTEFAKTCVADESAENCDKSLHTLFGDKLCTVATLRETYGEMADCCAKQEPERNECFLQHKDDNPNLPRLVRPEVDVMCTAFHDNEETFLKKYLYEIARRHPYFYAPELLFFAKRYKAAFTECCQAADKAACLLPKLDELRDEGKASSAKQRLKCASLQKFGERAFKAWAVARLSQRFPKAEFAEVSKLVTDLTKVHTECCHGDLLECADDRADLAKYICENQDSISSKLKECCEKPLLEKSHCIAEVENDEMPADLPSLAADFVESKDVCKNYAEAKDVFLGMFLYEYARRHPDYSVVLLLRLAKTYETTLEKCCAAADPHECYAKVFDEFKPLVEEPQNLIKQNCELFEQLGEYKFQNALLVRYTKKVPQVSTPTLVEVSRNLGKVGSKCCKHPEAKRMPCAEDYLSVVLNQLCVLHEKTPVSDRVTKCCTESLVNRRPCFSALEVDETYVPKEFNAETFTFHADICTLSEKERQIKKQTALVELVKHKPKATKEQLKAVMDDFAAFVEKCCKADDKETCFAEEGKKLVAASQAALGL

Compound	IC50 [1, 10]	IC50 [1, 11]	IC50 [2, 12]	IC50 [2, 13]	Kapp (apparent HSA binding constant) [3]	binding number n for HSA binding [3]	IC50 [4, 14]	IC50 [4, 15]	log P [9]	other results
Cc1cnc2c(ccc3c(C)c(C)cnc32)c1C.Cc1cnc2c(ccc3c(C)c(C)cnc32)c1C.Cc1cnc2c(ccc3c(C)c(C)cnc32)c1C.[Ru+2] [(Me4phen)3, [Ru(Me4phen)3]^2+, reference compound]	157 ± 25 µM	111 ± 23 µM	253 ± 60 µM	72 ± 31 µM	0.12 ± 0.03 × 10^5 (M)^−1	0.81	220 ± 43 µM	265 ± 13 µM	–	–
N.N.[Cl][Pt][Cl] [Cisplatin, reference compound]	> 400 µM	146 ± 8 µM	314 ± 8 µM	12 ± 3 µM	–	–	–	–	–	–
Cc1ccnc(-c2cc(CCCCCCCCCCCCc3ccnc(-c4cc(C)ccn4)c3)ccn2)c1.[Ru+2].[Ru+2].c1cnc2c(c1)ccc1cccnc12.c1cnc2c(c1)ccc1cccnc12.c1cnc2c(c1)ccc1cccnc12.c1cnc2c(c1)ccc1cccnc12 [Rubb12, [{Ru(phen)2}2{μ-bb12}]^4+, reference compound]	44 ± 9 µM	41 ± 7 µM	55 ± 12 µM	15 ± 5 µM	–	–	10 ± 1 µM	8 ± 3 µM	–	amount of complex in serum after intravenous injection [5]: decreased very rapidly; Kapp (HSA binding), previously determined [6]: 470000 M⁻¹; effect of Q[10]-binding on HSA binding affinity [6]: decreased the affinity
Cc1ccnc(-c2cc(CCCCCCCc3ccnc(-c4cc(C)ccn4)c3)ccn2)c1.Cc1cnc2c(ccc3c(C)c(C)cnc32)c1C.[Ru+2] [α-Me4phen-7, cis-α-[Ru(Me4phen)(bb7)]^2+]	> 400 µM	168 ± 5 µM	162 ± 14 µM	142 ± 8 µM	4.6 ± 0.90 × 10^5 (M)^−1	1.14	> 400 µM	> 400 µM	−1.33	level of cellular accumulation, free vs Q[10]-encapsulated (luminescence intensity per cell) (BHK cells; BHK cells, […] μM, 1-h incubation): no difference; nuclear localization in BHK cells (BHK cells; preliminary confocal microscopy): did not localize in the nucleus; fold decrease in toxicity by Q[10]-encapsulation ([7]; based on 48-h incubation toxicity to BHK and Hep-G2 cells): 2–3 fold; fold less toxic to eukaryotic cells than α-phen-12 ([7]; from IC50 values): 2–5 fold; MIC [8]: 1 to 10 µM; fold lower antimicrobial activity to Gram-negative bacteria than Rubb12 ([8]; ref Sun et al.): ≈ 2 fold; fold higher HSA binding affinity on Q[10]-encapsulation ([3]; Q[10]-encapsulated vs free): 3–4 fold; fold tighter HSA binding than α-phen-12 and α-Me2phen-7 ([3]; from Kapp): approximately 10 fold
Cc1ccnc(-c2cc(CCCCCCCc3ccnc(-c4cc(C)ccn4)c3)ccn2)c1.O=[N+]([O-])c1cc2cccnc2c2ncccc12.[Ru+2] [α-NO2phen-7, cis-α-[Ru(NO2phen)(bb7)]^2+]	> 400 µM	> 400 µM	141 ± 29 µM	99 ± 29 µM	23.5 ± 4.9 × 10^5 (M)^−1	1.27	121 ± 18 µM	126 ± 6 µM	−1.58	–
Cc1ccnc(-c2cc(CCCCCCCc3ccnc(-c4cc(C)ccn4)c3)ccn2)c1.[Ru+2].c1cnc2c(c1)ccc1cccnc12 [α-phen-7, cis-α-[Ru(phen)(bb7)]^2+]	> 400 µM	250 ± 42 µM	319 ± 26 µM	312 ± 15 µM	0.10 ± 0.00 × 10^5 (M)^−1	0.80	> 400 µM	219 ± 43 µM	–	–
Cc1ccnc(-c2cc(CCCCCCCCCCCCc3ccnc(-c4cc(C)ccn4)c3)ccn2)c1.[Ru+2].c1cnc2c(c1)ccc1cccnc12 [α-phen-12, cis-α-[Ru(phen)(bb12)]^2+]	92 ± 26 µM	85 ± 16 µM	94 ± 13 µM	19 ± 3 µM	0.43 ± 0.17 × 10^5 (M)^−1	0.95	227 ± 22 µM	177 ± 17 µM	−0.9	fold more toxic than α-Me4phen-7 ([7]; eukaryotic cells, from IC50 values): 2–5 fold; MIC [8]: 1 to 10 µM
cis-α-[Ru(Me2phen)(bb7)]^2+ [α-Me2phen-7]	> 400 µM	250 ± 46 µM	358 ± 18 µM	151 ± 30 µM	0.29 ± 0.13 × 10^5 (M)^−1	0.91	> 400 µM	> 400 µM	–	–
